Read-outs that look alike come from different tables or passages of the source.
Key:
diabetic mice = assay: Preliminary ip and sc injections, duration of blood sugar lowering; format: in vivo, mouse; conditions: for blood sugars 24 hours after ip and sc injections: preliminary experiments
Protocol: Effects of chronic treatment with exendin-4 in mice. The biological activity of exendin-4, as measured by its ability to lower blood sugar, was much longer than we expected when given ip or subcutaneously to diabetic animals. […] This lead us to design a long-term experiment with exendin-4. At the initiation of the daily ip exendin-4 regimen in the mice fasting blood glucose was 145±51 mg/dl in the non-diabetic mice and 232±38 mg/dl in the diabetic mice. […] Glucose levels dropped to 90±11 mg/dl in the exendin-4-treated animals from 238±51 mg/dl (p<0.002) in the NaCl-treated animals (Table 1). We measured fasting insulin levels in the diabetic animals that received NaCl or exendin-4. They were higher in the animals that received exendin-4 (p<0.002). […] We surmised that the decreased urination in the exendin-4-treated diabetic mice was due to less osmotic diuresis because of lower blood glucose.
This was possibly due to greater variation in the sc technique and perhaps even loss of the peptide during injections in some cases.

AR42J cells [1] = assay: Amylase release from AR42J cells; format: cell-based, rat
Protocol: Cell Culture. AR42J cells were maintained in Dulbecco's modified Eagle's medium (Gibco, Grand Island, N.Y.) (DMEM) supplemented with 10% Fetal Calf Serum, 100 IU/ml penicillin, 100 μg/ml streptomycin and 2 mM glutamine. Cells from passage 23–36 were used throughout this study.
Amylase Assay. For amylase secretion, cells were washed free of medium with 2 ml phosphate buffered saline (PBS). Incubation was then carried out in DMEM containing 15 mM HEPES, 0.2% bovine serum albumin (BSA) and 0.01% soybean trypsin inhibitor. The hormones and reagents of interest were added for 50 min at 37° C. The incubation medium was then immediately removed for amylase determination and the cells were again washed in 2 ml ice-cold PBS. […] The released amylase was expressed as the percentage of the total amylase activity of the cells.

islets of Langerhans = assay: cAMP determinations in isolated islets; format: cell-based, rat
Protocol: cAMP determinations. Islets of Langerhans were harvested from Wistar rats (Perfetti et al., 1995) and batches of 25 islets were then incubated for 1 h at 37° C. in a buffer containing (mM) 140 NaCl, 5 KCl, 1 NaPO4 1 MgSO4, 5 glucose, 2 CaCl2, 20 HEPES, buffer (pH 7.4) and 0.1% bovine serum albumin. Following this, they were incubated in the same buffer for 1 h in the presence of GLP-1 (1 nM) or exendin-4 (1 nM). Some batches of islets were then washed three times with ice-cold phosphate buffer saline (PBS) and lysed with 1 ml ice-cold […] perchloric acid. Other batches were washed three times in the buffer at 37° C. to remove peptide and left another 15 min before being washed three times in ice-cold PBS followed by lysis with the perchloric acid. The lysates (950 μl) were then transferred to microcentrifuge tubes and cAMP measured as previously described (See Example 1) using a cAMP [^3H] assay kit (Amersham).

AR42J cells [2] = assay: Intracellular calcium in single AR42J cells (indo-1); format: cell-based, rat
Protocol: Measurement of intracellular calcium, [Ca^2+]l. AR42J cells were loaded with the fluorescent Ca^2+ probe, indo-1 acetoxymethyl ester (indo-1/AM). […] Both loading with indo-1 and the experiments were carried out at room temperature (22–24° C.). […] The emission field was restricted to a single cell. Indo-1 was excited at 350±5 nm every 5 ms, and the fluorescence emission was split into wavelength bands of 410±5 and 490±5 nm. […] The cell autofluorescence was assessed in a large number of indo-1 non-loaded cells from the same batch. […] Routinely, the cells were exposed to the test solution for 240–300s. Thereafter, the test solution was washed out, while [Ca^2+]l was monitored for additional 120–180s. The test solutions were prepared just prior to the experiment by adding the hormones in standard bathing solution.

Compound: CC[C@H](C)[C@H](NC(=O)[C@H](Cc1ccccc1)NC(=O)[C@H](CCC(=O)O)NC(=O)[C@H](CCCCN)NC(=O)[C@H](C)NC(=O)[C@H](C)NC(=O)[C@H](CCC(N)=O)NC(=O)CNC(=O)[C@H](CCC(=O)O)NC(=O)[C@H](CC(C)C)NC(=O)[C@H](Cc1ccc(O)cc1)NC(=O)[C@H](CO)NC(=O)[C@H](CO)NC(=O)[C@@H](NC(=O)[C@H](CC(=O)O)NC(=O)[C@H](CO)NC(=O)[C@@H](NC(=O)[C@H](Cc1ccccc1)NC(=O)[C@@H](NC(=O)CNC(=O)[C@H](CCC(=O)O)NC(=O)[C@H](C)NC(=O)[C@@H](N)Cc1c[nH]cn1)[C@@H](C)O)[C@@H](C)O)C(C)C)C(=O)N[C@@H](C)C(=O)N[C@@H](Cc1c[nH]c2ccccc12)C(=O)N[C@@H](CC(C)C)C(=O)N[C@H](C(=O)N[C@@H](CCCCN)C(=O)NCC(=O)N[C@@H](CCCNC(=N)N)C(N)=O)C(C)C [GLP-1]
- blood sugars 24 hours after ip and sc injections (diabetic mice): back to baseline
- effect on amylase release when given alone (AR42J cells [1]; 50 min, glucagon 10 or 100 nM, GLP-1 10 nM, insulin 100 nM, 8-Br-cAMP 100 nM, vanadate 1 mM): did not influence amylase release
- effect on CCK-induced amylase release (AR42J cells [1]; combined with CCK (1 nM), genestein 300 μM, vanadate 1 mM): did not influence amylase release
- basal or CCK (1 nM)-induced amylase release after pre-incubation (AR42J cells [1]; pre-incubation 8, 24, 48 or 72 h with GLP-1 (10 nM) and insulin (100 nM)): did not increase
- cAMP levels 15 min after removal of peptide by three washes (islets of Langerhans): returned to baseline
- concentration of maximum cAMP response (islets of Langerhans): 1 nM
- peak [Ca2+]i amplitude, increase over resting indo-1 fluorescence ratio (IFR) (AR42J cells [2]; single cells): 1.5–2.5 fold
- AR42J cells showing [Ca2+]i response (AR42J cells [2]; single cells, CCK 1 nM, glucagon 10 nM): approximately 50%

Compound: exendin-4
- duration of lower blood sugars after an ip dose (diabetic mice): up to 24 hours
- blood sugars 24 hours after ip and sc injections (diabetic mice): lower blood sugars
- effect on amylase release when given alone (AR42J cells [1]): did not appear to influence amylase release
- cAMP levels 15 min after removal of peptide by three washes (islets of Langerhans): returned to baseline
- cAMP levels relative to GLP-1 (islets of Langerhans; 1 nM, 1 h): approximately 3 fold
- potency on [Ca2+]i relative to GLP-1 (AR42J cells [2]): approximately one order of magnitude more potent

Reference: US7056734B1, “Differentiation of non-insulin producing cells into insulin producing cells by GLP-1 or exendin-4 and uses thereof” (The United States of America as represented by the …, priority 1998, dated 2006)
